Ten compounds from patent publication US11666578B2, “Small molecule inhibitors of CDK12/CDK13” (The Scripps Research Institute, priority 2018, dated 2023) can be followed below.

Data set [1] concerns the target CK1ε (Homo sapiens, UniProt P49674). Description: In-house kinase inhibition assay, CK1ε. It is filed as biochemical. An excerpt:
(§1) [drawing 21] wherein the substituents W, X, Y, Z, and R^1, are as specified in the respective Table columns.

For data set [2], the target named is CK1δ (Homo sapiens, UniProt P48730). In words: In-house kinase inhibition assay, CK1δ. The format is biochemical.
Sequence of CK1δ (P48730 whole entry): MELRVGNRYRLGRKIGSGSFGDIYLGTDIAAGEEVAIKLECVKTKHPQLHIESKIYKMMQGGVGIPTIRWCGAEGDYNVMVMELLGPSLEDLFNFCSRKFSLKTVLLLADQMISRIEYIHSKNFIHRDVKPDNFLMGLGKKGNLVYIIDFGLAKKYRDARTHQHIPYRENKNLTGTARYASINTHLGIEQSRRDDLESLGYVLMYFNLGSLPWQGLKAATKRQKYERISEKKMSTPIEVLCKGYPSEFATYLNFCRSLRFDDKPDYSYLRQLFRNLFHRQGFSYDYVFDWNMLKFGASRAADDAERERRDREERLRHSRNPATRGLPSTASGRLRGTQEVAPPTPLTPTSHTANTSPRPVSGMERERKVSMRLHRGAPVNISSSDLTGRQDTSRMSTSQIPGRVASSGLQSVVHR
Excerpt: as §1

A short description of data set [3]: Microsome stability, human liver microsomes. It is filed as in vitro ADME. The conditions noted are these: read-out: Microsome stability t1/2 (H). Background: Liver microsomes are a subcellular fraction often used to study metabolism.
Data set [4] concerns the target CYP 2C9 (Homo sapiens, UniProt P11712). Description: Cytochrome P450 inhibition assay, 2C9. It is filed as in vitro ADME.
Data set [5] can be described thus: Solubility in pH 7.4 phosphate buffered saline. The format is physicochemical. The conditions noted are these: aqueous buffer.
Data set [6] can be described thus: Microsome stability, mouse liver microsomes. It is filed as in vitro ADME. The following applies: read-out: Microsome stability t1/2.
The subject of data set [7] is U87 cell line. Description: Cell proliferation / growth inhibition, U87, 72 h (Cell-Titer Glo). The format is cell-based. The conditions noted are these: Homo sapiens, U-87 MG.
The target in data set [8] is T1, CYP 1A2 (Homo sapiens, UniProt P05177).
T1 sequence (P05177 1-516): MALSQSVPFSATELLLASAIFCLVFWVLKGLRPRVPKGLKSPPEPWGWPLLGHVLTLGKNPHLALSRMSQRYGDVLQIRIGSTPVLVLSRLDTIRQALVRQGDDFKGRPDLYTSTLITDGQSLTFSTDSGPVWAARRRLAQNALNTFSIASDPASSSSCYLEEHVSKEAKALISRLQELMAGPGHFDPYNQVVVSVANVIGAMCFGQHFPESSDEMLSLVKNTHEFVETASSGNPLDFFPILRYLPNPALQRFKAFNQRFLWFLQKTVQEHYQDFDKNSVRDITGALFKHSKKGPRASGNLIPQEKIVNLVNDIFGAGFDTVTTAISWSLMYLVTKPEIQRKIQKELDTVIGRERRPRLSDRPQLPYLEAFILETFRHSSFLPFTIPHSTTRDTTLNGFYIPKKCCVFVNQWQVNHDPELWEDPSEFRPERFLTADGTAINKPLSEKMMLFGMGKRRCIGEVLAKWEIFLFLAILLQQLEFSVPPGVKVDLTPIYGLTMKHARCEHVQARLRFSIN
In words: Cytochrome P450 inhibition assay, 1A2. It is filed as in vitro ADME.

Data set [9] addresses CYP 2D6 (Homo sapiens, UniProt P10635). In words: Cytochrome P450 inhibition assay, 2D6. It is filed as in vitro ADME.
In data set [10] the test system is MDA-MB-231 cell line. In words: Cell proliferation / growth inhibition, MDA-MB-231, 72 h (Cell-Titer Glo). It is filed as cell-based. The conditions noted are these: Homo sapiens.
Data set [11] is described as follows: Microsome stability, rat liver microsomes. It is filed as in vitro ADME. The conditions noted are these: read-out: Microsome stability t1/2 (R).
Data set [12] deals with CYP 3A4 (Homo sapiens, UniProt P08684). Description: Cytochrome P450 inhibition assay, 3A4. It is filed as in vitro ADME.
Sequence of CYP 3A4 (P08684 whole entry): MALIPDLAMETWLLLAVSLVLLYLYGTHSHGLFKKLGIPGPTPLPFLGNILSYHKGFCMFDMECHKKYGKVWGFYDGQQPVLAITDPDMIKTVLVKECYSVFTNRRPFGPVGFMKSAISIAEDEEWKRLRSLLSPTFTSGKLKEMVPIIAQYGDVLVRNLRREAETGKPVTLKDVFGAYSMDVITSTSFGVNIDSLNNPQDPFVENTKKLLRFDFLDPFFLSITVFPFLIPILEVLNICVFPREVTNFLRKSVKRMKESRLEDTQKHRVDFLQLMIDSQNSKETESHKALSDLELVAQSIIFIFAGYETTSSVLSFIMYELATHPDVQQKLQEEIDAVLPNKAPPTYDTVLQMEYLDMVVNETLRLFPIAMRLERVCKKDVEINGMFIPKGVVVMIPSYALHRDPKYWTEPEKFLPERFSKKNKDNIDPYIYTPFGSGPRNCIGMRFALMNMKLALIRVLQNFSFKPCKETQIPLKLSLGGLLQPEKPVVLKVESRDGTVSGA
Data set [13] addresses T2, CDK12 (Homo sapiens, UniProt Q9NYV4).
T2 construct: purchased DiscoverX
Description: Competition binding assay, DiscoverX (Kinomescan), CDK12.
Excerpt: as §1
In addition to screening a selected set of new inhibitors in CDK12/13 enzyme assays using Kinomescan™ technology, we tested all new compounds in a mechanism of action assay, which detects inhibition of phosphorylation of serine 2 (pSer2) on the C-terminal repeat domain (CTD) of RNA pol II.

The target in data set [14] is T3, CDK13 (Homo sapiens, UniProt Q14004).
T3 construct: purchased DiscoverX
In words: Competition binding assay, DiscoverX (Kinomescan), CDK13.
Excerpt: as §1
In addition to screening a selected set of new inhibitors in CDK12/13 enzyme assays using Kinomescan™ technology, we tested all new compounds in a mechanism of action assay, which detects inhibition of phosphorylation of serine 2 (pSer2) on the C-terminal repeat domain (CTD) of RNA pol II. […] In order to confirm that CDK12/13 inhibition is driving cell death, we also plotted the growth inhibition pIC50's with pSer2 inhibition data. There was a good correlation when using the cell proliferation data from both U87 and MDA-MB-231 cell lines (FIGS. 5 and 6).

Data set [15] in a line: Mouse PK. The format is in vivo. The following applies: for AUC: read-out: AUCINF_dos (converted).
In data set [16] the test system is other CDKs (CDK panel). In words: Selectivity in CDK panel (% of inhibition at 10 μM). It is filed as biochemical. The conditions noted are these: FIG. 2. As for the experimental part:
FIGS. 2a and 2b. Selectivity of selected CDK12/13 inhibitors against other CDKs (% of inhibition at 10 μM)

[17] abbreviates: read-out: CK1δ IC50, read-out: CK1σ IC50.

In brackets after ≈: the same amount, converted by molar mass. Several values for one entry are separate records, joined by “and”; a condition that tells them apart may be missing. Identical values can stand only once. Like-named read-outs stand apart in the source and are kept apart here.

Sequence of CYP 2D6 (P10635 whole entry): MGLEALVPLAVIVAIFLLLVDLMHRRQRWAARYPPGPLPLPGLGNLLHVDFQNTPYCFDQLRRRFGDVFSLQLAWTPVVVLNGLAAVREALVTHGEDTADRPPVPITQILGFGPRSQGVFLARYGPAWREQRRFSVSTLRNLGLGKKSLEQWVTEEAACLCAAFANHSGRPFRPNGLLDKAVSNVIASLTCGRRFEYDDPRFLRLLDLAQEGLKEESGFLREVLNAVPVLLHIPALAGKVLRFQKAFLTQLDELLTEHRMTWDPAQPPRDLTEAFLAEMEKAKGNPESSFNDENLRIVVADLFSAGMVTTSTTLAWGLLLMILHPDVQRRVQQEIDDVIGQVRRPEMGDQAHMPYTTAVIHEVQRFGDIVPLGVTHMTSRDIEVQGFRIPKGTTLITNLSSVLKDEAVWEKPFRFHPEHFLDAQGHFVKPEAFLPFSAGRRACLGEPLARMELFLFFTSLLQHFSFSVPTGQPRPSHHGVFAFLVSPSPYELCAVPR
Sequence of CK1ε (P49674 whole entry): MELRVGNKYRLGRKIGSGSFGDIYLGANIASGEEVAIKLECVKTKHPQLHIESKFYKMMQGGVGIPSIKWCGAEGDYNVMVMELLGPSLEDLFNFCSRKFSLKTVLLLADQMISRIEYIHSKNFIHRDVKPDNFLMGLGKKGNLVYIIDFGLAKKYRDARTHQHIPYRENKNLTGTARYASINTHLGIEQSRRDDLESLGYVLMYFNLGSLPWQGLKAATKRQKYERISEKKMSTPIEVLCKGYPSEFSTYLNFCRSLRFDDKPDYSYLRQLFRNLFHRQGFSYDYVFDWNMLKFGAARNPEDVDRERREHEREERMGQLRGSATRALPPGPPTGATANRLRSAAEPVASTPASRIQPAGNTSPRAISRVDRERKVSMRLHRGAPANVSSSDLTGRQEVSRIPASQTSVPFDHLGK
Sequence of CYP 2C9 (P11712 whole entry): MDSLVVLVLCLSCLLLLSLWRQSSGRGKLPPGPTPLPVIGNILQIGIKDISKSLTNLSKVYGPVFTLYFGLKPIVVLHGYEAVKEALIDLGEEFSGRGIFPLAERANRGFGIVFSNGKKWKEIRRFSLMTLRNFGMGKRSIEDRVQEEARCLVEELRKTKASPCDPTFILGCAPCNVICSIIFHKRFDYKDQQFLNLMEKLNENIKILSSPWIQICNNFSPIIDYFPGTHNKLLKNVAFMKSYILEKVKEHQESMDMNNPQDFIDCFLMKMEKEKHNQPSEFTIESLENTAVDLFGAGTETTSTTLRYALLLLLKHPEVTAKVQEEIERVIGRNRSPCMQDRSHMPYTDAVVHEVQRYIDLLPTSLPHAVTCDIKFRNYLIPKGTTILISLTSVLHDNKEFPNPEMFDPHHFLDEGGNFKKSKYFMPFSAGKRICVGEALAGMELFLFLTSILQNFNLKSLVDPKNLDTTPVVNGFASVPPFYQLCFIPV
T2 sequence (Q9NYV4 whole entry): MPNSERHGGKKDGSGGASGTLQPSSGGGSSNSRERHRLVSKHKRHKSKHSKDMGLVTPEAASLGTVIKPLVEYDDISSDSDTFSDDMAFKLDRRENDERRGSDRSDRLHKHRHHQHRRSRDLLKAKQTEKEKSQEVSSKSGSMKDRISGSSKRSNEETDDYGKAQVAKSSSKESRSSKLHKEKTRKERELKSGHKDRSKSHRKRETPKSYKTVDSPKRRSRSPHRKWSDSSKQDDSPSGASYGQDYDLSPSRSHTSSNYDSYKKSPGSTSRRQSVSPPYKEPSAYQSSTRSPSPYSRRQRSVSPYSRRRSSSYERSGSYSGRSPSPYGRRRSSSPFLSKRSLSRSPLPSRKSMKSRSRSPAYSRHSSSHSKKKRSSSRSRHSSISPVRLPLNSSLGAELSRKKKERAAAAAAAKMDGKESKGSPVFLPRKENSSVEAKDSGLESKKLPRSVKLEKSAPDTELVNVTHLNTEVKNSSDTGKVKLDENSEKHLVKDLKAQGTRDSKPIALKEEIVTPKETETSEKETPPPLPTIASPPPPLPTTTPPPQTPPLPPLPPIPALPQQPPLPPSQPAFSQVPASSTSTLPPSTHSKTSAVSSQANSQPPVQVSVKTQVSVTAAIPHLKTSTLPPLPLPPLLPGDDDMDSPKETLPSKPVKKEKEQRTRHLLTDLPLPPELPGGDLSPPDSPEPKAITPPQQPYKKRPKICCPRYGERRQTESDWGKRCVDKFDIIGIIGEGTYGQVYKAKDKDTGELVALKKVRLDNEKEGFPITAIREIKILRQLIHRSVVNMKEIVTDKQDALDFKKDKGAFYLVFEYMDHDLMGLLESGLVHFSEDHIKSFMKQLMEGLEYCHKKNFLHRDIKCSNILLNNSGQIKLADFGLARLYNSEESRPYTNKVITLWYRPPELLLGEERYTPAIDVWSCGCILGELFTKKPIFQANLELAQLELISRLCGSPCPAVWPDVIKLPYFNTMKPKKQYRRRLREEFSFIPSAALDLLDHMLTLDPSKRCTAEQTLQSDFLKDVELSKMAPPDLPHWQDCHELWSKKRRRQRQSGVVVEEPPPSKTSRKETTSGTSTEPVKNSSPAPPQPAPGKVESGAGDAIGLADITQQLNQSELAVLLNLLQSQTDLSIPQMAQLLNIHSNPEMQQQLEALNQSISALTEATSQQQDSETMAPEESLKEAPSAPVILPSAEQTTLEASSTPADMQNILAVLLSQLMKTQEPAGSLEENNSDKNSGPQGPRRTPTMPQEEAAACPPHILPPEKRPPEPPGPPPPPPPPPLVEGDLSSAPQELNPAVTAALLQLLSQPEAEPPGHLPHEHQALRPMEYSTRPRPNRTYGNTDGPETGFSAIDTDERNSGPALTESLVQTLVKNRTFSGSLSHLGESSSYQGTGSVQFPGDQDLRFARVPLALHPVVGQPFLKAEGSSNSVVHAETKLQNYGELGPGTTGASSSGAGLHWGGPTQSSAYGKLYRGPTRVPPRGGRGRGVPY

Take `Fc1ccc2[nH]c(CNc3nc(N4CCOCC4)nc4c3ncn4-c3cncs3)nc2c1F` [Compound 8, N-((4,5-difluoro-1H-benzo[d]imidazol-2-yl)methyl)-2-morpholino-9-(thiazol-5-yl)-9H-purin-6-amine]: the IC50 in [1] was 632 nM; in data set [2] (setting [17]) it was 419 nM.
With `Fc1ccc2[nH]c(CNc3nc(N4CCOCC4)nc4c3ncn4-c3cscn3)nc2c1F` [Compound 4, N-((4,5-difluoro-1H-benzo[d]imidazol-2-yl)methyl)-2-morpholino-9-(thiazol-4-yl)-9H-purin-6-amine], the half-life in data set [3] came out at 16 min; in data set [6], 6 min; in data set [11] it was 9 min. The “CYP inhibition 2C9” value in data set [4] is recorded as 89 % inh. For the same compound, the solubility in data set [5] is 0.8 µM (≈ 0.376 µg/mL). Moreover, the GI50 in data set [7] and in [10] was under 2 nM in each case. Further, the “CYP inhibition 1A2” value in [8] worked out at 97 % inh. Moreover, the “CYP inhibition 2D6” value in data set [9] worked out at 57 % inh. In data set [12], the “CYP inhibition 3A4” value stood at 89 % inh.
Take `Cn1cc(-n2cnc3c(NCc4nc5cc(F)c(F)cc5[nH]4)nc(N4CCOCC4)nc32)cn1` [Compound 2, N-((5,6-difluoro-1H-benzo[d]imidazol-2-yl)methyl)-9-(1-methyl-1H-pyrazol-4-yl) morpholino-9H-purin-6-amine]: the half-life worked out at 39 min in [3], 11 min in data set [6] and 18 min in data set [11]. In addition, the “CYP inhibition 2C9” value in data set [4] stood at 23 % inh. Further, the IC50 is 6500 nM in data set [1] and over 9900 nM in data set [2] (setting [17]). The solubility in data set [5] came to 0.8 µM (≈ 0.373 µg/mL). Besides, the “CYP inhibition 1A2” value in [8] was determined as 5 % inh. In data set [9], the “CYP inhibition 2D6” value was determined as 2 % inh. Also, the “CYP inhibition 3A4” value in data set [12] came to 55 % inh.
Consider `Fc1ccc2[nH]c(CNc3nc(N4CCOCC4)nc4c3ncn4-c3nccs3)nc2c1F` [Compound 9, N-((4,5-difluoro-1H-benzo[d]imidazol-2-yl)methyl)-2-morpholino-9-(thiazol-2-yl)-9H-purin-6-amine], for which the results for the IC50 in data set [1] and in data set [2] (setting [17]) were 1070 nM and 400 nM, respectively.
`Cn1cc(-n2cnc3c(NCc4nc5c(F)c(F)ccc5[nH]4)nc(N4CCOCC4)nc32)cn1` [Compound 1, N-((4,5-difluoro-1H-benzo[d]imidazol-2-yl)methyl)-9-(1-methyl-1H-pyrazol-4-yl) morpholino-9H-purin-6-amine]: the Kd amounted to 14 nM in data set [13] and 5 nM in [14]. Also, the half-life was 22 min in data set [3]; 9 min in [6]; 179 min in data set [15] (in vivo, IP 30 mg/kg, 10/10/80 DMSO/Tween-80/water); 20 min in data set [11]. In addition, the “CYP inhibition 2C9” value in data set [4] is on record as 23 % inh. In addition, the figures for the IC50 in data set [1] and in data set [2] (setting [17]) were 4600 nM and 8600 nM, respectively. Moreover, the solubility in [5] is 6.1 µM (≈ 2.85 µg/mL). The “AUC % Extrap” value in [15] (IP 30 mg/kg) worked out at 0.1%. The compound also yielded a CI_obs in data set [15] (IP 30 mg/kg) of 13.4 mL/min/kg. In data set [15] (in vivo, IP 30 mg/kg), the AUC(0-t) was 25400 ng·h/mL and 55 µM·h. Besides, in [15] (in vivo, IP 30 mg/kg), the AUC was 25500 ng·h/mL. Also, the Cmax in data set [15] (in vivo, IP 30 mg/kg, read-out: Cmax) was 9330 ng/mL and 20 µM. For the same compound, the Tmax in data set [15] (in vivo, IP 30 mg/kg, read-out: Tmax) was 60 min. Further, the “CYP inhibition 1A2” value in data set [8] turned out to be 10 % inh. Also, the “CYP inhibition 2D6” value in [9] was −3 % inh. Further, in data set [12], the “CYP inhibition 3A4” value worked out at 56 % inh.
Consider `Cn1cc(-n2cnc3c(NCc4nc5cc(Cl)c(Cl)cc5[nH]4)nc(N4CCOC[C@H]4CO)nc32)cn1` [Compound 7, (R)-(4-(6-(((5,6-dichloro-1H-benzo[d]imidazol-2-yl)methyl)amino)-9-(1-methyl-1H-pyrazol-4-yl)-9H-purin-2-yl)morpholin-3-yl)methanol], for which the half-life in data set [3] is 27 min. Moreover, the “CYP inhibition 2C9” value in [4] is reported as 54 % inh. Also, in data set [5], the solubility was determined as 0.7 µM (≈ 0.371 µg/mL). The half-life in data set [6] stood at 18 min. Moreover, in data set [15] (IP 20 mg/kg), the “AUC % Extrap” value is given as 1.0%, the CI_obs stood at 61.6 mL/min/kg and the Tmax was determined as 60 min. Besides, the T1/2 in [15] (IP 20 mg/kg, 10/10/80 DMSO/Tween-80/water) was 223 min. In addition, in data set [15] (in vivo, IP 20 mg/kg), the AUC is 5530 ng·h/mL. The “CYP inhibition 1A2” value in data set [8] stood at 39 % inh. Further, in data set [9], the “CYP inhibition 2D6” value is 29 % inh. Further, the half-life in data set [11] was 25 min. Further, the “CYP inhibition 3A4” value in [12] came to 54 % inh.
In the case of `Fc1cccc(-n2cnc3c(NCc4nc5c(F)c(F)ccc5[nH]4)nc(N4CCOCC4)nc32)c1` [SR-3029], in [16], the “Selectivity in CDK panel” value was “good selectivity”.
With `Cn1cc(-n2cnc3c(NCc4nc5cc(Cl)c(Cl)cc5[nH]4)nc(N4CCOC[C@@H]4CO)nc32)cn1` [Compound 6, (S)-(4-(6-(((5,6-dichloro-1H-benzo[d]imidazol-2-yl)methyl)amino)-9-(1-methyl-1H-pyrazol-4-yl)-9H-purin-2-yl)morpholin-3-yl)methanol], the half-life amounted to 21 min in [3], 13 min in data set [6] and 19 min in data set [11]. For the same compound, the “CYP inhibition 2C9” value in [4] was 69 % inh. The solubility in data set [5] came out at 0.8 µM (≈ 0.424 µg/mL). The “CYP inhibition 1A2” value in [8] came out at 42 % inh. Also, in data set [9], the “CYP inhibition 2D6” value came to 42 % inh. The “CYP inhibition 3A4” value in data set [12] is reported as 77 % inh.
On to `COc1cc2nc(CNc3nc(N4CCOCC4)nc4c3ncn4-c3cnn(C)c3)[nH]c2cc1Cl` [Compound 10], for which the IC50 in data set [2] (read-out: CK1σ IC50) was 7730 nM.
As for `Cc1cc(-n2cnc3c(NCc4nc5c(F)c(F)ccc5[nH]4)nc(N4CCOCC4)nc32)no1` [Compound 3, N-((4,5-difluoro-1H-benzo[d]imidazol-2-yl)methyl)-9-(5-methylisoxazol-3-yl)-2-morpholino-9H-purin-6-amine], the Kd in data set [13] was 22 nM; in data set [14] it was 4 nM. In addition, the half-life in data set [3] came to 13 min; in data set [6] it was 7 min; in data set [11], 11 min. Moreover, in data set [4], the “CYP inhibition 2C9” value amounted to 23 % inh. For the same compound, the IC50 was 1250 nM in data set [1] and 4740 nM in [2] (setting [17]). Moreover, in data set [5], the solubility came to 3.6 µM (≈ 1.68 µg/mL). The “CYP inhibition 1A2” value in data set [8] worked out at 5 % inh. In addition, in data set [9], the “CYP inhibition 2D6” value stood at 2 % inh. Further, the “CYP inhibition 3A4” value in data set [12] is 55 % inh.

Usually IC50 stands for the point on the concentration scale where inhibition reaches its midpoint. Usually solubility stands for the dissolved amount per volume that the medium holds. As usually defined, the GI50 is the concentration giving 50% growth inhibition. Low readings indicate greater sensitivity of the cells, high ones lower sensitivity of the cells. A word on the Kd: it is the free concentration of one partner at which half of the binding sites on the other are occupied at equilibrium, for simple one-to-one binding. Broadly, the AUC(0-t) is exposure summed from dosing to a finite time, without extrapolation to infinity. One may read the Cmax as the highest concentration seen after dosing. Usually Tmax stands for the time from dosing to the highest level.
